Here are results for 12 compounds from patent US8710077B2, “Cycloalkylamine substituted isoquinoline and isoquinolinone derivatives” (Sanofi, priority 2006, dated 2014).

The assay deals with T1, human recombinant ROCK II (Homo sapiens, UniProt O75116).
T1 construct: recombinant human ROCK-II residues 11-552; His6 (N); purchased Upstate Ltd., Dundee, UK
The assay can be described thus: Determination of Rho Kinase Inhibition (Caliper peptide phosphorylation assay). In kind it is biochemical. As to conditions: ROCK II residues 11-552, 60 min at 32° C., compound in the form (salt or free base) obtained in the examples. The method, then: Determination of Rho Kinase Inhibition
To measure Rho-kinase inhibition, IC50 values were determined according to the following protocol:
Active human recombinant ROCK II (N-terminal His6-tagged recombinant human ROCK-II residues 11-552) was purchased from Upstate Ltd., Dundee, UK. The peptide substrate, Fluorescein-AKRRRLSSLRA-COOH, was obtained from JPT Peptide Technologies, Berlin, Germany. Adenosine-5′-triphosphate (ATP), bovine serum albumine (BSA), dimethylsulphoxide (DMSO), 4-(2-Hydroxyethyl)piperazine-1-ethanesulfonic acid (Hepes), Brij-35 and dithiothreitol (DTT) were purchased from Sigma-Aldrich, Munich, Germany. Tris(hydroxymethyl)-aminomethane (Tris), magnesium chloride, NaOH, 1M HCl and EDTA were obtained from Merck Biosciences, Darmstadt, Germany. “Complete” protease inhibitor was from Roche Diagnostics, Mannheim, Germany.
Test compounds were diluted to the appropriate concentrations in buffer 1 (25 mM Tris-HCl, pH 7.4, 5 mM MgCl2, 2 mM DTT, 0.02% (w/v) BSA and 3% DMSO). The ROCK II enzyme was diluted to a concentration of 100 ng/ml in buffer 2 (25 mM Tris-HCl, pH 7.4, 5 mM MgCl2, 2 mM DTT and 0.02% (w/v) BSA). The peptide substrate and ATP were diluted to concentrations of 3 μM and 120 μM, respectively, in the buffer 2. Two μl of the compound solution were mixed with 2 μl of the diluted enzyme in a 384-well small volume microtiter plate (Greiner, Bio-One, Frickenhausen, Germany), and the kinase reaction was initiated by addition of 2 μl of the solution containing peptide substrate and ATP. After 60 min incubation at 32° C., the reaction was stopped by addition of 20 μl of a solution containing 100 mM Hepes-NaOH, pH 7.4, 0.015% (v/v) Brij-35, 45 mM EDTA and 0.227% chip coating reagent 1 (Caliper Lifescience Inc, Hopkinton, Mass.). Phosphorylation of the substrate peptide was then detected on a Caliper 3000 instrument essentially as described by Pommereau et al (J. Biomol. Screening 9 (5), 409-416, 2004). Separation conditions were as follows: Pressure—1.3 psi, upstream voltage—1562 V, downstream voltage—500 V, sample sip time 200 ms. Positive controls (buffer 1 instead of compound) and negative controls (buffer 1 instead of compound and buffer 2 instead of ROCK II) were run in parallel on each plate.
The following products/compounds were tested in said assay by using the respective form (salt or free base) obtained as in the examples described above and the following activities were measured.

T1 sequence (O75116 11-552): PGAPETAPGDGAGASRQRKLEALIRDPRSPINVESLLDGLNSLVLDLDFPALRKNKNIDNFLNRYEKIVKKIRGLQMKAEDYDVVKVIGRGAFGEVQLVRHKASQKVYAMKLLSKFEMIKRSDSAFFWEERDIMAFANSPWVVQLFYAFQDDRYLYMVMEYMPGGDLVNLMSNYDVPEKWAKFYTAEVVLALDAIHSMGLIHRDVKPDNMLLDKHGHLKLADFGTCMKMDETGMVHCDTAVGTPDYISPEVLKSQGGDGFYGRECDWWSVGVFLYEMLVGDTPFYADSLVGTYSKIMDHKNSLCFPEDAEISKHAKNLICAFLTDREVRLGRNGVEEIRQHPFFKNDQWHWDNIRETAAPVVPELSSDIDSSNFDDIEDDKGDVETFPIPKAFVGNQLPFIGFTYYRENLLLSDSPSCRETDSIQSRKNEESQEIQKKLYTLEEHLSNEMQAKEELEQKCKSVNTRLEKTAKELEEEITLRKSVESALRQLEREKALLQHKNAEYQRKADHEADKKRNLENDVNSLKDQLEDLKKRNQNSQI

Turning to `NCC1(c2ccccc2)CCC(Oc2cc3cc[nH]c(=O)c3cc2Cl)CC1` (stereo not drawn) [Compound 108, 6-(4-Aminomethyl-4-phenyl-cyclohexyloxy)-7-chloro-2H-isoquinolin-1-one], the IC50 (as a rule, the concentration that inhibits the measured activity by half) was at most 1000 nM.
For `NCC1(c2ccc(Cl)cc2)CCC(Oc2cc3cc[nH]c(=O)c3cc2Cl)CC1` (stereo not drawn) [Compound 109, 6-[4-Aminomethyl-4-(4-chloro-phenyl)-cyclohexyloxy]-7-chloro-2H-isoquinolin-1-one] the value was at most 1000 nM.
Under `N[C@]1(C2CC2)CC[C@H](Oc2cc3cc[nH]c(=O)c3cc2Cl)CC1` [Compound 41, 6-(cis-4-Amino-4-cyclopropyl-cyclohexyloxy)-7-chloro-2H-isoquinolin-1-one] stands at most 1000 nM; under `NC1(CC(O)CO)CCC(Oc2cc3cc[nH]c(=O)c3cc2Cl)CC1` (mixture of isomers) [Compound 57, 6-[4-amino-4-(2,3-dihydroxy-propyl)-cyclohexyloxy]-7-chloro-2H-isoquinolin-1-one], at most 1000 nM.
For `C=CCC1(N)CCC(Oc2cc3cc[nH]c(=O)c3cc2Cl)CC1` (mixture of isomers) [Compound 20, 6-(4-Allyl-4-amino-cyclohexyloxy)-7-chloro-2H-isoquinolin-1-one] the value was at most 1000 nM.
For `NCC1(c2ccccc2)CCC(Oc2cc3ccncc3cc2Cl)CC1` (stereo not drawn) [Compound 120, C-[4-(7-Chloro-isoquinolin-6-yloxy)-1-phenyl-cyclohexyl]-methylamine], the IC50 was at most 1000 nM.
Under `NCC1(c2cccc(Cl)c2)CCC(Oc2cc3cc[nH]c(=O)c3cc2Cl)CC1` (stereo not drawn) [Compound 110, 6-[4-Aminomethyl-4-(3-chloro-phenyl)-cyclohexyloxy]-7-chloro-2H-isoquinolin-1-one] stands at most 1000 nM; under `NCC1(c2ccc(Cl)c(Cl)c2)CCC(Oc2cc3cc[nH]c(=O)c3cc2Cl)CC1` (stereo not drawn) [Compound 116, 6-[4-Aminomethyl-4-(3,4-dichloro-phenyl)-cyclohexyloxy]-7-chloro-2H-isoquinolin-1-one], at most 1000 nM.
Under `COc1ccc(C2(CN)CCC(Oc3cc4cc[nH]c(=O)c4cc3Cl)CC2)cc1` (stereo not drawn) [Compound 114, 6-[4-Aminomethyl-4-(4-methoxy-phenyl)-cyclohexyloxy]-7-chloro-2H-isoquinolin-1-one] stands at most 1000 nM; under `NCC1(c2ccc(F)cc2)CCC(Oc2cc3cc[nH]c(=O)c3cc2Cl)CC1` (stereo not drawn) [Compound 113, 6-[4-Aminomethyl-4-(4-fluoro-phenyl)-cyclohexyloxy]-7-chloro-2H-isoquinolin-1-one], at most 1000 nM; under `COc1ccc(C2(CN)CCC(Oc3cc4cc[nH]c(=O)c4cc3Cl)CC2)cc1OC` (stereo not drawn) [Compound 112, 6-[4-Aminomethyl-4-(3,4-dimethoxy-phenyl)-cyclohexyloxy]-7-chloro-2H-isoquinolin-1-one], at most 1000 nM.
For `Cc1cccc(C2(CN)CCC(Oc3cc4cc[nH]c(=O)c4cc3Cl)CC2)c1` (stereo not drawn) [Compound 111, 6-[4-Aminomethyl-4-(3-methyl-phenyl)-cyclohexyloxy]-7-chloro-2H-isoquinolin-1-one] the value was 1000 to 10000 nM.
